Data taken from the supplement of paper PMC8967900.

What was measured:
Experiment in all cases: selective drug sensitivity score (sDSS, relative to normal bone marrow) (sDSS (score)); higher = more potent and effective on the cell line relative to normal bone marrow cells
Conditions in all cases: 72 h
380 = system: 380
KASUMI-9 = system: KASUMI-9
NALM-6 = system: NALM-6
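Further: ALL cell lines in 384-well plates, five doses spanning 10,000-fold, each plate scaled between vehicle and 100 µmol/L benzalkonium chloride controls, sDSS an adapted area-under-curve metric.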

Cc1cnc(-c2ccccc2C(C)C)nc1NCc1ccc(-n2ccnn2)cc1 [ML323] (top concentration 10000 nM)
selective drug sensitivity score 380: -0.36
selective drug sensitivity score (KASUMI-9): 0.04
selective drug sensitivity score (NALM-6): 1.84

O=C(CCNC(=O)c1ccc(OC(F)(F)F)cc1)N[C@@H]1CCCc2ccccc21 [ML390] (top concentration 50000 nM)
selective drug sensitivity score 380: 12.4
selective drug sensitivity score (KASUMI-9): 13.1
selective drug sensitivity score (NALM-6): 10.8

CN(C)C(=N)NC(=N)N [Metformin] (top concentration 100000 nM)
selective drug sensitivity score 380: -0.02
selective drug sensitivity score (KASUMI-9): -0.02
selective drug sensitivity score (NALM-6): -0.02

C[C@H]1C[C@@H]2[C@H]([C@@H](O)C[C@@]3(C)[C@H]2CC[C@]3(O)C(=O)CO)[C@@]2(C)C=CC(=O)C=C12 [Methylprednisolone] (top concentration 10000 nM)
selective drug sensitivity score 380: 27.2
selective drug sensitivity score (KASUMI-9): 4
selective drug sensitivity score (NALM-6): 22.4

FC(F)(F)c1ccc(/C=C/c2nc(COc3ccc(CCCCn4ccnn4)cc3)co2)cc1 [Mubritinib] (top concentration 1000 nM)
selective drug sensitivity score 380: 0.66
selective drug sensitivity score (KASUMI-9): 3.56
selective drug sensitivity score (NALM-6): 12.1

COc1cc2c(cc1OC(C)C)[C@H](c1ccc(Cl)cc1)N(c1ccc(N(C)C[C@H]3CC[C@H](N4CCN(C)C(=O)C4)CC3)cc1)C(=O)C2 [NVP-CGM097] (top concentration 25000 nM)
selective drug sensitivity score 380: 11.4
selective drug sensitivity score (KASUMI-9): 14.5
selective drug sensitivity score (NALM-6): 5.66

CCOc1cc2ncc(C#N)c(Nc3ccc(OCc4ccccn4)c(Cl)c3)c2cc1NC(=O)/C=C/CN(C)C [Neratinib] (top concentration 1000 nM)
selective drug sensitivity score 380: 4.98
selective drug sensitivity score (KASUMI-9): 3.68
selective drug sensitivity score (NALM-6): 0.48

COc1ncc(-c2ccc3nccc(-c4ccnnc4)c3c2)cc1NS(=O)(=O)c1ccc(F)cc1F [Omipalisib] (top concentration 1000 nM)
selective drug sensitivity score 380: 22.2
selective drug sensitivity score (KASUMI-9): 12.6
selective drug sensitivity score (NALM-6): 17.2

CN1CCN(c2cc(C(=O)Nc3ccc4c(c3)-c3c(c(C(N)=O)nn3-c3ccc(F)cc3)CC4)c(Cl)cn2)CC1 [PHA-408] (top concentration 10000 nM)
selective drug sensitivity score 380: 5.68
selective drug sensitivity score (KASUMI-9): 2.48
selective drug sensitivity score (NALM-6): 0.78

OC[C@H]1O[C@@H](n2cnc3c2N=CNC[C@H]3O)C[C@@H]1O [Pentostatin] (top concentration 10000 nM)
selective drug sensitivity score 380: -0.44
selective drug sensitivity score (KASUMI-9): -0.44
selective drug sensitivity score (NALM-6): -0.44

CC(C)N(C[C@H]1O[C@@H](n2cnc3c(N)ncnc32)[C@H](O)[C@@H]1O)[C@H]1C[C@@H](CCc2nc3cc(C(C)(C)C)ccc3[nH]2)C1 [Pinometostat] (top concentration 1000 nM)
selective drug sensitivity score 380: 0
selective drug sensitivity score (KASUMI-9): 0
selective drug sensitivity score (NALM-6): 0

Cc1ccc(=O)n(-c2ccccc2)c1 [Pirfenidone] (top concentration 10000 nM)
selective drug sensitivity score 380: 0
selective drug sensitivity score (KASUMI-9): 0
selective drug sensitivity score (NALM-6): 0

NCCNc1ccc(NCCN)c2c1C(=O)c1ccncc1C2=O [Pixantrone] (top concentration 10000 nM)
selective drug sensitivity score 380: -2.76
selective drug sensitivity score (KASUMI-9): -0.36
selective drug sensitivity score (NALM-6): -2.76

c1cc(CN2CCCNCCNCCCNCC2)ccc1CN1CCCNCCNCCCNCC1 [Plerixafor] (top concentration 10000 nM)
selective drug sensitivity score 380: 0
selective drug sensitivity score (KASUMI-9): 0
selective drug sensitivity score (NALM-6): 0.3

O=C(c1ccc(OCCN2CCCCC2)cc1)c1c(-c2ccc(O)cc2)sc2cc(O)ccc12 [Raloxifene] (top concentration 10000 nM)
selective drug sensitivity score 380: -2.28
selective drug sensitivity score (KASUMI-9): -0.68
selective drug sensitivity score (NALM-6): -0.88

CN(C)C(=O)c1cc2cnc(Nc3ccc(N4CCNCC4)cn3)nc2n1C1CCCC1 [Ribociclib] (top concentration 10000 nM)
selective drug sensitivity score 380: -2.02
selective drug sensitivity score (KASUMI-9): 6.38
selective drug sensitivity score (NALM-6): 1.18

CN1CCN(CCOc2cc(OC3CCOCC3)c3c(Nc4c(Cl)ccc5c4OCO5)ncnc3c2)CC1 [Saracatinib] (top concentration 10000 nM)
selective drug sensitivity score 380: -2.02
selective drug sensitivity score (KASUMI-9): 2.98
selective drug sensitivity score (NALM-6): -1.22

C=CC(=O)Nc1cccc(Nc2nc(Nc3ccc(OCCOC)cc3)ncc2F)c1 [Spebrutinib] (top concentration 1000 nM)
selective drug sensitivity score 380: -0.16
selective drug sensitivity score (KASUMI-9): 4.84
selective drug sensitivity score (NALM-6): 2.04

C[C@@H]1CN(Cc2ccc(F)cc2)[C@@H](C)CN1C(=O)c1cc2c(C(=O)C(=O)N(C)C)cn(C)c2cc1Cl [Talmapimod] (top concentration 10000 nM)
selective drug sensitivity score 380: 0
selective drug sensitivity score (KASUMI-9): 0
selective drug sensitivity score (NALM-6): 0

C[C@@H](C(=O)O)c1ccc(-c2ccccc2)c(F)c1 [Tarenflurbil] (top concentration 10000 nM)
selective drug sensitivity score 380: -0.16
selective drug sensitivity score (KASUMI-9): 6.84
selective drug sensitivity score (NALM-6): 3.44

CNC(=O)c1cc(COc2nnc(Nc3ccc(Cl)cc3)c3ccoc23)ccn1 [Telatinib] (top concentration 10000 nM)
selective drug sensitivity score 380: 0
selective drug sensitivity score (KASUMI-9): 1
selective drug sensitivity score (NALM-6): 0

O=c1sn(-c2cccc3ccccc23)c(=O)n1Cc1ccccc1 [Tideglusib] (top concentration 3000 nM)
selective drug sensitivity score 380: -0.3
selective drug sensitivity score (KASUMI-9): -0.3
selective drug sensitivity score (NALM-6): -0.3

COc1cc2nccc(Oc3ccc(NC(=O)Nc4cc(C)on4)c(Cl)c3)c2cc1OC [Tivozanib] (top concentration 10000 nM)
selective drug sensitivity score 380: -3.64
selective drug sensitivity score (KASUMI-9): 2.46
selective drug sensitivity score (NALM-6): 2.36

Cc1cc(Nc2cc(N3CCN(C)CC3)nc(Sc3ccc(NC(=O)C4CC4)cc3)n2)n[nH]1 [Tozasertib] (top concentration 10000 nM)
selective drug sensitivity score 380: 19.2
selective drug sensitivity score (KASUMI-9): 18.4
selective drug sensitivity score (NALM-6): 16.2

CC1=C(/C=C/C(C)=C/C=C/C(C)=C/C(=O)O)C(C)(C)CCC1 [Tretinoin] (top concentration 10000 nM)
selective drug sensitivity score 380: 1.7
selective drug sensitivity score (KASUMI-9): 3.4
selective drug sensitivity score (NALM-6): -2.4

COC(=O)c1ccc2c(c1)[nH]c1ncnc(NCCCN3CCCCC3)c12 [UM729] (top concentration 10000 nM)
selective drug sensitivity score 380: 5.74
selective drug sensitivity score (KASUMI-9): 2.44
selective drug sensitivity score (NALM-6): 0.34

COc1cc2c(NC3CCN(C(C)C)CC3)nc(N3CCC(F)(F)CC3)nc2cc1OCCCN1CCCC1 [UNC0642] (top concentration 10000 nM)
selective drug sensitivity score 380: 0.86
selective drug sensitivity score (KASUMI-9): 0.76
selective drug sensitivity score (NALM-6): -2.24

O=C(c1ccc(C(=O)N2CCC(N3CCCC3)CC2)c(Nc2ccccc2)c1)N1CCC(N2CCCC2)CC1 [UNC1215] (top concentration 10000 nM)
selective drug sensitivity score 380: 0
selective drug sensitivity score (KASUMI-9): 0
selective drug sensitivity score (NALM-6): 0

CCCC(CCC)C(=O)O [Valproic_acid] (top concentration 1000000 nM)
selective drug sensitivity score 380: 0
selective drug sensitivity score (KASUMI-9): 0
selective drug sensitivity score (NALM-6): 0

Clc1ccc(Nc2nnc(Cc3ccncc3)c3ccccc23)cc1 [Vatalanib] (top concentration 10000 nM)
selective drug sensitivity score 380: 0
selective drug sensitivity score (KASUMI-9): 0
selective drug sensitivity score (NALM-6): 0

CCCS(=O)(=O)Nc1ccc(F)c(C(=O)c2c[nH]c3ncc(-c4ccc(Cl)cc4)cc23)c1F [Vemurafenib] (top concentration 10000 nM)
selective drug sensitivity score 380: -1.14
selective drug sensitivity score (KASUMI-9): 1.66
selective drug sensitivity score (NALM-6): -1.14

CC[C@]1(O)C[C@H]2CN(CCc3c([nH]c4ccccc34)[C@@](C(=O)OC)(c3cc4c(cc3OC)N(C)[C@H]3[C@@](O)(C(=O)OC)[C@H](OC(C)=O)[C@]5(CC)C=CCN6CC[C@]43[C@@H]65)C2)C1 [Vinblastine] (top concentration 1000 nM)
selective drug sensitivity score 380: 7
selective drug sensitivity score (KASUMI-9): 14.9
selective drug sensitivity score (NALM-6): 6.3

CC[C@]1(O)C[C@H]2CN(CCc3c([nH]c4ccccc34)[C@@](C(=O)OC)(c3cc4c(cc3OC)N(C=O)[C@H]3[C@@](O)(C(=O)OC)[C@H](OC(C)=O)[C@]5(CC)C=CCN6CC[C@]43[C@@H]65)C2)C1 [Vincristine] (top concentration 1000 nM)
selective drug sensitivity score 380: 14.9
selective drug sensitivity score (KASUMI-9): 15.9
selective drug sensitivity score (NALM-6): 10.7

FC(F)c1nc2ccccc2n1-c1nc(N2CCOCC2)nc(N2CCOCC2)n1 [ZSTK474] (top concentration 10000 nM)
selective drug sensitivity score 380: 13.7
selective drug sensitivity score (KASUMI-9): 9.86
selective drug sensitivity score (NALM-6): 11.9
